According to patent publication US20090004171A1, “COMPOUND PROFILING METHOD” (CYTOPATHFINDER, INC., priority 2007, published 2009):

Key:
[1] = tested on: SHSY5Y cell; assay: Exposure of SHSY5Y neuroblastoma cells to differentiation stimulants (neuron projection extension, marker enzyme expression); type: cell-based; conditions: human neuroblastoma
Text: The functions of (1) and (2) are different, but share the same properties in terms of extension of neuron projection. Therefore, cellular components necessary for these two intracellular alteration were specified experimentally by means of RNA interference method. As such, it was obtained that the component collection (3) necessary for the alteration from SHSY5Y to (1) are {JAK1, JAK3, ROR, and RET}. On the other hand, the component collection (4) necessary for the alteration from SHSY5Y cells to (2), are {NTRK1, EPHB2, INSR, RDGFRA, ROR and RET}. When comparing and calculation of intersection is done for (3) and (4), the intersection (5) was obtained to read {ROR and RET}. Next, the collection (6) {JAK1 and JAK3} by subtraction of (3)−(5) and the collection (5) were analyzed in terms of an intermolecular interaction, and the existence of a pathway of a molecular signals from (6) to (5) (FIG. 3A) was determined. Furthermore, the collection (7) which was obtained by the subtraction of (4)−(5), and the collection (5) were analyzed in terms of an intermolecular interaction, and the existence of a pathway of molecular signals from (7) to (5) (FIG. 3B) was further determined. The common components and pathway relating to the projection extension by retinoic acid (RA) and Nerve Growth Factor (NGF) are shown in FIG. 4.

[2] = tested on: SK-BR-3; conditions: SK-BR-3 breast cancer cell; stated as known; cited from earlier work
[3] = tested on: MCF7; conditions: MCF7 breast cancer cells; cited from earlier work
[4] = tested on: T-47D cell; conditions: T-47D human derived breast cancer cell, compared with SK-BR-3; cited from earlier work

Molecule	expression of tyrosine hydroxylase [1]	extension of neuron projection [1]	effect on cell growth [2]	DXR sensitivity / resistance [3]	DXR sensitivity [4]
Nerve Growth Factor: Nerve Growth Factor, stimulant triggering neurite outgrowth of SHSY5Y cells	tyrosine hydroxylase was expressed	caused extension of neuron projection			
COc1cccc2c1C(=O)c1c(O)c3c(c(O)c1C2=O)C[C@@](O)(C(=O)CO)C[C@@H]3O[C@H]1C[C@H](N)[C@H](O)[C@H](C)O1 [doxorubicin]			growth inhibition	DXR resistance	same DXR sensitivity as the SK-BR-3
